In one data set the target is T1, 2-pyrone synthase (Gerbera hybrida, UniProt P48391).
T1 construct: made in house
T1 sequence (P48391 1-402): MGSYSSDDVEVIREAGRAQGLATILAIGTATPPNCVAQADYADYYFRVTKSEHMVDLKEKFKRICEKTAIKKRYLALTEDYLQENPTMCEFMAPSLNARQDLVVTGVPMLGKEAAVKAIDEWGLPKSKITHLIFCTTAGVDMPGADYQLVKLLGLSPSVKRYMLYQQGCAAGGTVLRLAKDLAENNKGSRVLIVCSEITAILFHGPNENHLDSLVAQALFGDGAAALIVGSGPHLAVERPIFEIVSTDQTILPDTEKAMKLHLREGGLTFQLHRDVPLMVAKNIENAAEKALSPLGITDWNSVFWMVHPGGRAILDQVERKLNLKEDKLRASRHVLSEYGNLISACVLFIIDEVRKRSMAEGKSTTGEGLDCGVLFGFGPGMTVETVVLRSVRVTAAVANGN
Description: in vitro enzymology of purified 2-pyrone synthase. Format: biochemical. From the text:
(§1) To further explore its role in phloroglucinol biosynthesis, PhlD is purified to homogeneity and its in vitro enzymology examined. No activity (Table 1) is observed when acetyl-CoA alone is employed as a substrate. […] For comparison, 2-pyrone synthase, which like PhlD employs an activated 3,5-diketohexanoate 2 (Scheme 1), is purified to homogeneity.

The target in another data set is T2, PhlD (Pseudomonas fluorescens, UniProt Q4K418).
T2 construct: made in house
T2 sequence (Q4K418 1-349): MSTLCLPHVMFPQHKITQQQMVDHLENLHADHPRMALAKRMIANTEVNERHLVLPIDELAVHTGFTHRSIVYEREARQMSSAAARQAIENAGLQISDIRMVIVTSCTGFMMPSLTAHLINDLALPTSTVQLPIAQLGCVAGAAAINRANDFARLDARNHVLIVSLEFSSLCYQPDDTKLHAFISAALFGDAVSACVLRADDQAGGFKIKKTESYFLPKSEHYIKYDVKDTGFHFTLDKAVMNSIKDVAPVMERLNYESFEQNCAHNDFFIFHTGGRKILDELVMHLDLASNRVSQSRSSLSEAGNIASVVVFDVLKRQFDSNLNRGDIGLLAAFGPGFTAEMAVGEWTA
The data set is described as follows: in vitro enzymology of purified PhlD. Format: biochemical, P. fluorescens Pf-5.
From the text: as §1

A further data set deals with E. coli strains. The data set is described as follows: end-product inhibition in fed-batch fermentation of phlD-expressing E. coli strains. To be noted: culture medium concentration; data not shown. The format is cell-based. How it is done: Plasmid pJA3.131A (Kan^R, lacI^Q, PT7-phlD, serA) is transfected into chromosomally serA^− E. coli strains BL21(DE3), W3110(DE3), and JWF1(DE3) [i.e. RB791serA^−(DE3)], and into strain KL3(DE3) [i.e. AB2834(serA::aroB)] (E. coli strains RB791 and AB2834 are available from the E. coli Genetic Stock Center, New Haven, Conn., USA). All DE3 strains are obtained by integration of λDE3 prophage into the cell chromosomes. Cells are cultured in fed-batch conditions under mineral salts and limited glucose.
In these tests, phloroglucinol accumulation for all strains stops increasing during the stationary (or maintenance) phase. For BL21 and W3110, the highest phloroglucinol concentration is achieved about 6 hours and about 12 hours, respectively, after initiation of induction, i.e. the first IPTG addition. End-product inhibition is also observed.

Substrate in data set [1]: CC(=O)SCCNC(=O)CCNC(=O)[C@H](O)C(C)(C)COP(=O)(O)OP(=O)(O)OC[C@H]1O[C@@H](n2cnc3c(N)ncnc32)[C@H](O)[C@@H]1OP(=O)(O)O
Description: in vitro enzymology of purified 2-pyrone synthase. Format: biochemical, Gerbera hybrida. Conditions: other: substrate of 2-pyrone synthase purified to homogeneity.
From the text: as §1

Substrate in data set [2]: CC(C)(COP(=O)(O)OP(=O)(O)OC[C@H]1O[C@@H](n2cnc3c(N)ncnc32)[C@H](O)[C@@H]1OP(=O)(O)O)[C@@H](O)C(=O)NCCC(=O)NCCSC(=O)CC(=O)O
The data set is described as follows: in vitro enzymology of purified PhlD. To be noted: other: substrate of PhlD purified to homogeneity. The format is biochemical, P. fluorescens Pf-5.
From the text: as §1

One may read the kcat as the number of substrate molecules converted per active site and unit of time at saturation. Take “2-pyrone synthase: 2-pyrone synthase from Gerbera hybrida, converts malonyl-CoA into triacetic acid lactone; comparison enzyme”: the catalytic constant (kcat) with 2-pyrone synthase (2-pyrone synthase purified to homogeneity) was found to be 0.055 s⁻¹. For `CC(=O)SCCNC(=O)CCNC(=O)[C@H](O)C(C)(C)COP(=O)(O)OP(=O)(O)OC[C@H]1O[C@@H](n2cnc3c(N)ncnc32)[C@H](O)[C@@H]1OP(=O)(O)O` [acetyl-CoA], on PhlD (PhlD incubated with malonyl-CoA and acetyl-CoA), the “specific activity with malonyl-CoA and acetyl-CoA relative to only malonyl-CoA” value is “Approximately equal”. Further, the values for the activity as substrate entry on PhlD (employed alone as a substrate of PhlD) and at 2-pyrone synthase (acetyl-CoA as a substrate of 2-pyrone synthase) were “No activity” and “unable to use acetyl-CoA as a substrate”, respectively. The “specific activity with malonyl-CoA and acetyl-CoA relative to malonyl-CoA in the absence of acetyl-CoA” value at 2-pyrone synthase (2-pyrone synthase incubated with malonyl-CoA and acetyl-CoA) was “twofold higher”. As for `Oc1cc(O)cc(O)c1` [phloroglucinol, 1,3,5-trihydroxybenzene], the “concentration at which phloroglucinol is responsible for end-product inhibition” value in the data set with E. coli strains is on record as not below 2 g/L.

B1: 2-pyrone synthase (Gerbera hybrid cultivar) (protein)
chain: MGSYSSDDVEVIREAGRAQGLATILAIGTATPPNCVAQADYADYYFRVTKSEHMVDLKEKFKRICEKTAIKKRYLALTEDYLQENPTMCEFMAPSLNARQDLVVTGVPMLGKEAAVKAIDEWGLPKSKITHLIFCTTAGVDMPGADYQLVKLLGLSPSVKRYMLYQQGCAAGGTVLRLAKDLAENNKGSRVLIVCSEITAILFHGPNENHLDSLVAQALFGDGAAALIVGSGPHLAVERPIFEIVSTDQTILPDTEKAMKLHLREGGLTFQLHRDVPLMVAKNIENAAEKALSPLGITDWNSVFWMVHPGGRAILDQVERKLNLKEDKLRASRHVLSEYGNLISACVLFIIDEVRKRSMAEGKSTTGEGLDCGVLFGFGPGMTVETVVLRSVRVTAAVANGN
notes: made in house
The Km is the substrate concentration at which the rate is half of its maximum. As to B1, the Km in data set [1] came out at 2.2 µM.

B2: PhlD (Pseudomonas protegens Pf-5) (protein)
chain: MSTLCLPHVMFPQHKITQQQMVDHLENLHADHPRMALAKRMIANTEVNERHLVLPIDELAVHTGFTHRSIVYEREARQMSSAAARQAIENAGLQISDIRMVIVTSCTGFMMPSLTAHLINDLALPTSTVQLPIAQLGCVAGAAAINRANDFARLDARNHVLIVSLEFSSLCYQPDDTKLHAFISAALFGDAVSACVLRADDQAGGFKIKKTESYFLPKSEHYIKYDVKDTGFHFTLDKAVMNSIKDVAPVMERLNYESFEQNCAHNDFFIFHTGGRKILDELVMHLDLASNRVSQSRSSLSEAGNIASVVVFDVLKRQFDSNLNRGDIGLLAAFGPGFTAEMAVGEWTA
notes: made in house
For the molecule B2, the Michaelis-Menten constant (Km) in data set [2] came out at 37 µM.

B3: PhlD: phloroglucinol synthase expressed from phlD gene of P. fluorescens Pf-5, SEQ ID NO:2 (protein)
chain: MSTLCLPHVMFPQHKITQQQMVDHLENLHADHPRMALAKRMIANTEVNERHLVLPIDELAVHTGFTHRSIVYEREARQMSSAAARQAIENAGLQISDIRMVIVTSCTGFMMPSLTAHLINDLALPTSTVQLPIAQLGCVAGAAAINRANDFARLDARNHVLIVSLEFSSLCYQPDDTKLHAFISAALFGDAVSACVLRADDQAGGFKIKKTESYFLPKSEHYIKYDVKDTGFHFTLDKAVMNSIKDVAPVMERLNYESFEQNCAHNDFFIFHTGGRKILDELVMHLDLASNRVSQSRSSLSEAGNIASVVVFDVLKRQFDSNLNRGDIGLLAAFGPGFTAEMAVGEWTA
modifications: Pseudomonas fluorescens Pf-5
Consider B3, for which the turnover number (kcat) with PhlD (PhlD purified to homogeneity, malonyl-CoA substrate) came out at 0.0783 s⁻¹.

Source of the values: patent US8329445B2, “Biosynthesis of phloroglucinol and preparation of 1,3-dihydroxybenzene therefrom” (Board of Trustees of Michigan State University, priority 2004, dated 2012).
